The source of these data is US9155814B2, “Nanostructured material formulated with bone cement for effective antibiotic delivery” (priority 2009, dated 2015).

This series in a line: In vitro drug release study in PBS buffer. It counts as physicochemical. As to conditions: for percentage released from the bone cement: MSN-formulated bone cement loaded with gentamicin and indomethacin, FIG. 15, 80 days stated for gentamicin; for amount released as a percentage to the amount loaded: after 80 days, MSN-functionalized bone cement loaded with gentamicin and vancomycin, FIG. 13; for gentamicin released: FIG. 8; for percentage released: over 70 days, MSN functionalized bone cement loaded with gentamicin and ibuprofen, FIG. 14. On the procedure:
The drug release study was conducted by socking two cylinder samples of each composition in 5 ml PBS buffer (pH 7.4). The sample was put in an incubator shaker operated at 37° C. and 40 rpm. The release medium was withdrawn at predetermined time intervals, and replaced with fresh PBS buffer (5 ml) each time. The accumulative amount of gentamicin released was calculated based on the initial weight of bone cement cylinder and the drug content. The gentamicin release was followed for 80 days.
The o-phthaldialdehyde was used as a derivatizing agent to react with the amino groups of gentamicin and yield chromophoric products. The reaction was carried out making 1 ml of our problem gentamicin in solution react with 1 ml of isopropanol (to avoid the precipitation of the products formed) and 1 ml of o-phthaldialdehyde reagent. After fully mixed, the concentration of gentamicin sulfate was determined by the UV absorbance at 332 nm.
The concentration of ibuprofen, vancomycin and indomethacin was directly determined by UV-vis detection without the presence of reactive reagent.

Consider `COc1ccc2c(c1)c(CC(=O)O)c(C)n2C(=O)c1ccc(Cl)cc1` [indomethacin], for which the “percentage released from the bone cement” value stood at 15%.

Regarding `CN[C@H](CC(C)C)C(=O)N[C@H]1C(=O)N[C@@H](CC(N)=O)C(=O)N[C@H]2C(=O)N[C@H]3C(=O)N[C@H](C(=O)N[C@H](C(=O)O)c4cc(O)cc(O)c4-c4cc3ccc4O)[C@H](O)c3ccc(c(Cl)c3)Oc3cc2cc(c3O[C@@H]2O[C@H](CO)[C@@H](O)[C@H](O)[C@H]2O[C@H]2C[C@](C)(N)[C@H](O)[C@H](C)O2)Oc2ccc(cc2Cl)[C@H]1O` [vancomycin], the “amount released as a percentage to the amount loaded” value stood at 31%.

Take gentamicin: the “percentage released from the bone cement” value is 51%, the “amount released as a percentage to the amount loaded” value is reported as 40.8% and the percentage released came to 90%. Moreover, the “gentamicin released when loaded alone” value (MSN-functionalized bone cement, gentamicin alone) is recorded as 70%. Besides, the gentamicin released result (SmartSet HV composite bone cement with 2 wt % of MSN) is “much lower”. Further, the gentamicin released entry (SmartSet HV composite bone cement with 6.0 wt % of MSN) is “more than 55%”.

Consider `CC(C)Cc1ccc(C(C)C(=O)O)cc1` (stereo not drawn) [ibuprofen], for which the percentage released came to 47%.
